Broadly, the Ki is the dissociation constant of the complex between target and ligand, obtained from inhibition or displacement. Read a high Ki as a looser hold on the target.

Assay [1] concerns the target human GABAA α1β3γ2 receptor (Homo sapiens (Human), UniProt P14867+P18507). Kind of assay: Radioligand binding assay for γ2-containing GABAA subtypes, [3H]Flumazenil competition (α1β3γ2). The note with it: for γ2/γ1 Selectivity Ratio: Ki α1β3γ2 (nM)/Ki α2β2γ1 (nM); for LogSel: Log[Ki α1β3γ2 (nM)/Ki α2β2γ1 (nM)].
In assay [2] the target is α2β2γ1 GABAA receptor subtype (Homo sapiens (Human), UniProt P47869+Q8N1C3). Kind of assay: Two-electrode voltage clamp electrophysiology in Xenopus oocytes expressing GABAA receptors (modulation of GABA EC20 current). Format: cell-based. The note with it: for Efficacy (GABA)%: % modulation of GABA EC20 = 100*(Fold increase-1), α2β2γ1 oocytes, compound at approx. 30-fold Ki; for Fold increase h-GABA-A α2β2γ1 oocyte @ 30-fold Ki: Xenopus oocytes expressing α2β2γ1, compound at approx. 30-fold its Ki α2β2γ1, GABA EC20 current. The essentials:
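Two-electrode voltage clamp at −80 mV, room temperature, 3-5 days after mRNA injection into oocytes. GABA applied at EC20 for 1.5 min, twice, with compound during second application; at least 3 oocytes per concentration. Efficacy = extremum of point-by-point current ratio, expressed as 100×(fold increase−1).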
Background: In two-electrode clamp one electrode senses voltage and the other passes current.

The target of assay [3] is human GABAA α2β2γ1 receptor (Homo sapiens (Human), UniProt P47869+Q8N1C3). Kind of assay: Radioligand binding assay for γ1-containing GABAA subtypes, [3H]RO7239181 competition (α2β2γ1).
For assay [4], the target named is human GABAA α5β2γ1 receptor (Homo sapiens (Human), UniProt P31644+Q8N1C3). Kind of assay: Radioligand binding assay for γ1-containing GABAA subtypes, [3H]RO7239181 competition (α5β2γ1).
Where [5] appears, read: Ki h-GABAA α2β2γ1, [3H]RO7239181 competition binding, human GABAA α2β2γ1.
The mark [6] stands for this setting: Ki h-GABAA α2β2γ1, displacement of [3H]RO7239181, membranes of HEK293F cells expressing human receptors, means of two determinations.

In the case of `C[C@@H]1N=C(c2ncccc2F)c2c(ccc(C(F)(F)F)c2Cl)-n2nc(C(=O)N3CC(OC(F)F)C3)nc21` [Example 140, [(4S)-7-chloro-6-(3-fluor-2-pyridyl)-4-methyl-8-(trifluoromethyl)-4H-[1,2,4]triazolo[1,5-a][1,4]benzodiazepin-2-yl]-[3-(difluoromethoxy)azetidin-1-yl]methanone], the Ki in assay [1] was greater than 30000 nM; in assay [3] (setting [5]), 28.8 nM; in assay [3] (setting [6]), 28.8 nM; in assay [4], 6.63 nM. For the same molecule, the “γ2/γ1 Selectivity Ratio” value in assay [1] is listed as 1041.0. Further, the LogSel in assay [1] is recorded as 3.02. Also, the “Efficacy (GABA)%” value in assay [2] worked out at 121%. The “Fold increase h-GABA-A α2β2γ1 oocyte @ 30-fold Ki” value in assay [2] stood at 2.21.
Consider `C[C@@H]1N=C(c2ncccc2F)c2c(ccc(C(F)(F)F)c2Cl)-n2cc(C(=O)NCCO)nc21` [Example 141, (4S)-7-chloro-6-(3-fluoro-2-pyridyl)-N-(2-hydroxyethyl)-4-methyl-8-(trifluoromethyl)-4H-imidazo[1,2-a][1,4]benzodiazepine-2-carboxamide], for which the Ki in assay [1] came to 12200 nM; in assay [3] (setting [5]), 55.9 nM; in assay [3] (setting [6]), 55.9 nM; in assay [4] it was 12.4 nM. Besides, in assay [1], the “γ2/γ1 Selectivity Ratio” value turned out to be 218.4. This molecule also displayed a LogSel in assay [1] of 2.34. In addition, in assay [2], the “Efficacy (GABA)%” value is reported as 112%. In assay [2], the “Fold increase h-GABA-A α2β2γ1 oocyte @ 30-fold Ki” value is on record as 2.12.
With `C[C@@H]1N=C(c2ncccc2F)c2c(ccc(C(F)(F)F)c2Cl)-n2nc(C(=O)N3CC(C(F)F)C3)nc21` [Example 142, [(4S)-7-chloro-6-(3-fluoro-2-pyridyl)-4-methyl-8-(trifluoromethyl)-4H-[1,2,4]triazolo[1,5-a][1,4]benzodiazepin-2-yl]-[3-(difluoromethyl)azetidin-1-yl]methanone], in assay [1], the Ki is greater than 30000 nM, the “γ2/γ1 Selectivity Ratio” value was found to be 756.0 and the LogSel is 2.88. In assay [2], the “Efficacy (GABA)%” value was found to be 123% and the “Fold increase h-GABA-A α2β2γ1 oocyte @ 30-fold Ki” value came to 2.23. Also, in assay [3] (setting [5]), the Ki was found to be 39.7 nM. In assay [3] (setting [6]), the Ki was 39.7 nM. In assay [4], this molecule returned a Ki of 8.06 nM.
Take `C[C@@H]1N=C(c2ncccc2F)c2c(ccc(C(F)(F)F)c2Cl)-n2nc(NC(=O)NC3CC3)nc21` [Example 143, 1-[(4S)-7-chloro-6-(3-fluoro-2-pyridyl)-4-methyl-8-(trifluoromethyl)-4H-[1,2,4]triazolo[1,5-a][1,4]benzodiazepin-2-yl]-3-cyclopropyl-urea]: in assay [1], the affinity, expressed as Ki, was 13500 nM; the “γ2/γ1 Selectivity Ratio” value turned out to be 296.6; the LogSel amounted to 2.47. Also, in assay [2], the “Efficacy (GABA)%” value is recorded as 110% and the “Fold increase h-GABA-A α2β2γ1 oocyte @ 30-fold Ki” value was 2.10. The same molecule gave a Ki in assay [3] (setting [5]) of 45.4 nM. Further, the affinity in assay [3] (setting [6]) corresponds to a Ki of 45.4 nM. Besides, the inhibitory constant (Ki) in assay [4] worked out at 7.35 nM.
Take `COC1CN(C(=O)c2cn3c(n2)[C@H](C)N=C(c2ncccc2F)c2c-3ccc(C(F)(F)F)c2Cl)C1` [Example 145, [(4S)-7-chloro-6-(3-fluoro-2-pyridyl)-4-methyl-8-(trifluoromethyl)-4H-imidazo[1,2-a][1,4]benzodiazepin-2-yl]-(3-methoxyazetidin-1-yl)methanone]: in assay [1], the Ki stood at 13200 nM, the “γ2/γ1 Selectivity Ratio” value was found to be 141.7 and the LogSel came out at 2.15. Further, in assay [2], the “Efficacy (GABA)%” value worked out at 168% and the “Fold increase h-GABA-A α2β2γ1 oocyte @ 30-fold Ki” value turned out to be 2.68. Further, the affinity in assay [3] (setting [5]), expressed as Ki, was 93.1 nM. Further, in assay [3] (setting [6]), affinity was put at a Ki of 93.1 nM. This molecule also displayed a Ki in assay [4] of 18.4 nM.
On to `C[C@@H]1N=C(c2ncccc2F)c2c(ccc(C(F)(F)F)c2Cl)-n2nc(NC(=O)NC3COC3)nc21` [Example 146, 1-[(4S)-7-chloro-6-(3-fluoro-2-pyridyl)-4-methyl-8-(trifluoromethyl)-4H-[1,2,4]triazolo[1,5-a][1,4]benzodiazepin-2-yl]-3-(oxetan-3-yl)urea], for which, in assay [1], the inhibition constant (Ki) came to 13100 nM, the “γ2/γ1 Selectivity Ratio” value is on record as 364.3 and the LogSel stood at 2.56. Further, in assay [2], the “Efficacy (GABA)%” value was 111% and the “Fold increase h-GABA-A α2β2γ1 oocyte @ 30-fold Ki” value is given as 2.11. Moreover, the affinity in assay [3] (setting [5]), expressed as Ki, was 36.1 nM. Moreover, in assay [3] (setting [6]), the inhibitory constant (Ki) stood at 36.1 nM. The molecule also showed a Ki in assay [4] of 7.2 nM.
Regarding `C[C@@H]1N=C(c2ncccc2F)c2c(ccc(C(F)(F)F)c2Cl)-n2nc(N3CCOC3=O)nc21` [Example 147, 3-[(4S)-7-chloro-6-(3-fluoro-2-pyridyl)-4-methyl-8-(trifluoromethyl)-4H-[1,2,4]triazolo[1,5-a][1,4]benzodiazepin-2-yl]oxazolidin-2-one], in assay [1], the affinity corresponds to a Ki of 12600 nM, the “γ2/γ1 Selectivity Ratio” value turned out to be 255.4 and the LogSel is listed as 2.41. Moreover, in assay [2], the “Efficacy (GABA)%” value was found to be 113% and the “Fold increase h-GABA-A α2β2γ1 oocyte @ 30-fold Ki” value turned out to be 2.13. This molecule returned a Ki in assay [3] (setting [5]) of 49.3 nM. For the same molecule, in assay [3] (setting [6]), the Ki was 49.4 nM. Besides, the affinity in assay [4], expressed as Ki, was 7.44 nM.
On to `Cc1cn2c(n1)[C@H](C)N=C(c1c(F)cccc1F)c1c-2ccc(C(F)(F)F)c1Cl` [Example 148, (4S)-7-chloro-6-(2,6-difluorophenyl)-2,4-dimethyl-8-(trifluoromethyl)-4H-imidazo[1,2-a][1,4]benzodiazepine], for which, in assay [1], affinity was put at a Ki of 866 nM, the “γ2/γ1 Selectivity Ratio” value was 84.7 and the LogSel was determined as 1.93. Moreover, in assay [2], the “Efficacy (GABA)%” value was found to be 73% and the “Fold increase h-GABA-A α2β2γ1 oocyte @ 30-fold Ki” value is 1.73. In assay [3] (setting [5]), the inhibition constant Ki amounted to 10.2 nM. Moreover, the Ki in assay [3] (setting [6]) is 10.2 nM. In addition, the Ki in assay [4] was 2.1 nM.
`C[C@@H]1N=C(c2c(F)cccc2F)c2c(ccc(C(F)(F)F)c2Cl)-n2cc(CO)nc21` [Example 149, [(4S)-7-chloro-6-(2,6-difluorophenyl)-4-methyl-8-(trifluoromethyl)-4H-imidazo[1,2-a][1,4]benzodiazepin-2-yl]methanol]: in assay [1], affinity was put at a Ki of 1110 nM, the “γ2/γ1 Selectivity Ratio” value came out at 134.1 and the LogSel is on record as 2.13. Besides, in assay [2], the “Efficacy (GABA)%” value is recorded as 71% and the “Fold increase h-GABA-A α2β2γ1 oocyte @ 30-fold Ki” value turned out to be 1.71. In addition, the Ki in assay [3] (setting [5]) was 8.3 nM. Moreover, the Ki in assay [3] (setting [6]) is 8.3 nM. For the same molecule, the affinity in assay [4], expressed as Ki, was 1.59 nM.
Take `C[C@@H]1N=C(c2c(F)cccc2F)c2c(ccc(C(F)(F)F)c2Cl)-n2ccnc21` [Example 150, (4S)-7-chloro-6-(2,6-difluorophenyl)-4-methyl-8-(trifluoromethyl)-4H-imidazo[1,2-a][1,4]benzodiazepine]: the Ki amounted to 758 nM in assay [1], 7.3 nM in assay [3] (setting [5]), 7.3 nM in assay [3] (setting [6]) and 1.33 nM in assay [4]. The “γ2/γ1 Selectivity Ratio” value in assay [1] turned out to be 103.2. In addition, the “Efficacy (GABA)%” value in assay [2] is on record as 70%.
With `C[C@@H]1N=C(c2ncccc2F)c2c(ccc(C(F)(F)F)c2Cl)-n2c(CO)cnc21` [Example 151, [(4S)-7-chloro-6-(3-fluoro-2-pyridyl)-4-methyl-8-(trifluoromethyl)-4H-imidazo[1,2-a][1,4]benzodiazepin-1-yl]methanol], in assay [1], affinity was put at a Ki of 13200 nM, the “γ2/γ1 Selectivity Ratio” value was 142.0 and the LogSel was found to be 2.15. In addition, in assay [2], the “Efficacy (GABA)%” value came out at 253% and the “Fold increase h-GABA-A α2β2γ1 oocyte @ 30-fold Ki” value came to 3.53. This molecule also had a Ki in assay [3] (setting [5]) of 92.8 nM. The molecule further yielded a Ki in assay [3] (setting [6]) of 92.8 nM. The molecule also gave a Ki in assay [4] of 24 nM.
Turning to `C[C@@H]1N=C(c2ncccc2F)c2c(ccc(C(F)(F)F)c2Cl)-n2cc(CO)nc21` [Example 153, [(4S)-7-chloro-6-(3-fluoro-2-pyridyl)-4-methyl-8-(trifluoromethyl)-4H-imidazo[1,2-a][1,4]benzodiazepin-2-yl]methanol], in assay [1], the affinity, expressed as Ki, was 6020 nM; the “γ2/γ1 Selectivity Ratio” value came to 97.7; the LogSel was 1.99. For the same molecule, in assay [2], the “Efficacy (GABA)%” value came out at 247% and the “Fold increase h-GABA-A α2β2γ1 oocyte @ 30-fold Ki” value came out at 3.47. For the same molecule, in assay [3] (setting [5]), the Ki worked out at 62.4 nM. Further, the inhibitory constant (Ki) in assay [3] (setting [6]) stood at 61.7 nM. Also, the Ki in assay [4] was determined as 6.76 nM.
Regarding `Cc1c(C(=O)NCCO)nc2n1-c1ccc(C(F)(F)F)c(Cl)c1C(c1ncccc1F)=N[C@H]2C` [Example 154, (4S)-7-chloro-6-(3-fluoro-2-pyridyl)-N-(2-hydroxyethyl)-1,4-dimethyl-8-(trifluoromethyl)-4H-imidazo[1,2-a][1,4]benzodiazepine-2-carboxamide], in assay [1], the inhibitory constant (Ki) was 11400 nM, the “γ2/γ1 Selectivity Ratio” value amounted to 166.6 and the LogSel stood at 2.22. In addition, in assay [2], the “Efficacy (GABA)%” value is 191% and the “Fold increase h-GABA-A α2β2γ1 oocyte @ 30-fold Ki” value is 2.91. In addition, in assay [3] (setting [5]), the affinity, expressed as Ki, was 68.7 nM. The molecule further yielded a Ki in assay [3] (setting [6]) of 68.7 nM. The molecule further gave a Ki in assay [4] of 23 nM.
For `C[C@H](O)CNC(=O)c1cn2c(n1)[C@H](C)N=C(c1ncccc1F)c1c-2ccc(C(F)(F)F)c1Cl` [Example 155, (4S)-7-chloro-6-(3-fluoro-2-pyridyl)-4-methyl-N-[(2S)-2-hydroxypropyl]-8-(trifluoromethyl)-4H-imidazo[1,2-a][1,4]benzodiazepine-2-carboxamide], in assay [1], the affinity, expressed as Ki, was 8990 nM; the “γ2/γ1 Selectivity Ratio” value came out at 182.4; the LogSel was found to be 2.26. Further, in assay [2], the “Efficacy (GABA)%” value was found to be 193% and the “Fold increase h-GABA-A α2β2γ1 oocyte @ 30-fold Ki” value turned out to be 2.93. Also, the affinity in assay [3] (setting [5]) corresponds to a Ki of 49.7 nM. Further, the Ki in assay [3] (setting [6]) was 49.3 nM. Besides, the Ki in assay [4] amounted to 10.8 nM.

These data come from US12365687B2 (Hoffmann-La Roche Inc., priority 2021, dated 2025).
